pIC50: −log10 of the molar value. Where two headings read alike, the source gives them in different places.

For data set [1], the target named is T1, AChE E. eel (Electrophorus electricus, UniProt O42275).
T1 construct: purchased Sigma Chemical
The data set is described as follows: biochemical. More on the design: species or system Electric Eel. On the procedure:
(§1) The incubation time between enzyme and product used for the determinations has been 10'.
(§2) The acetylcholinesterase from human erythrocytes (AChE hRBC), the acetylcholinesterase from Electric Eel (AChE E.eel) and the butyrylcholinesterase from human serum (BuChE hserum) coming from the Sigma Chemical have been used.

In data set [2] the target is T2, BuChE hserum (Homo sapiens, UniProt P06276).
T2 construct: purchased Sigma Chemical; host or cells: human serum
The data set is described as follows: Inhibition of butyrylcholinesterase from human serum (Ellman method). Type of data set: biochemical. The note with it: for activity on the BuChE: Table 1. On the procedure: as §1, §2

For data set [3], the target named is T3, AChE hRBC (Homo sapiens, UniProt P22303).
T3 construct: purchased Sigma Chemical; host or cells: human erythrocytes
The data set is described as follows: biochemical. The settings on record: for potency compared with eptastigmine, physostigmine or tacrine: comparison from Table 1; for AChE inhibitory activity and selectivity: AChE versus BuChE, Table 1. On the procedure:
as §1, §2

Data set [4] can be described thus: Acute toxicity (single administration) in rat. The settings on record: in vivo.
Where [5] appears, read: po, os, read-out: Toxicity tests (LD50), rat os.

T3 sequence (P22303 32-617 isoform P22303-2 limits assumed): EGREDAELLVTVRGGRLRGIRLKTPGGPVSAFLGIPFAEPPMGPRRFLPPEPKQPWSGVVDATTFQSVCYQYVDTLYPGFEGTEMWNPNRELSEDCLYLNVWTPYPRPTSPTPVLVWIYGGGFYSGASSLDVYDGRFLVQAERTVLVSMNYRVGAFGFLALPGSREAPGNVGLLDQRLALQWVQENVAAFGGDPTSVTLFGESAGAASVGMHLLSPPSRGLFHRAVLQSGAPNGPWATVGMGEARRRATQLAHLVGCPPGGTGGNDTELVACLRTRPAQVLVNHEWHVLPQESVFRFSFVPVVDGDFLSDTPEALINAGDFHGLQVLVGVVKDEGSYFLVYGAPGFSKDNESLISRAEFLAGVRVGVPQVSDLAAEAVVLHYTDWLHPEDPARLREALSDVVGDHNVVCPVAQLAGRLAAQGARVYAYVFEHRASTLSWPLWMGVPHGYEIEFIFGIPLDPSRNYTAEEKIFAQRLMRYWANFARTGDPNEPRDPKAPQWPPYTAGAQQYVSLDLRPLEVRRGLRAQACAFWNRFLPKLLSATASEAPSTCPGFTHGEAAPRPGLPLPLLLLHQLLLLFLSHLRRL
T2 sequence (P06276 29-602): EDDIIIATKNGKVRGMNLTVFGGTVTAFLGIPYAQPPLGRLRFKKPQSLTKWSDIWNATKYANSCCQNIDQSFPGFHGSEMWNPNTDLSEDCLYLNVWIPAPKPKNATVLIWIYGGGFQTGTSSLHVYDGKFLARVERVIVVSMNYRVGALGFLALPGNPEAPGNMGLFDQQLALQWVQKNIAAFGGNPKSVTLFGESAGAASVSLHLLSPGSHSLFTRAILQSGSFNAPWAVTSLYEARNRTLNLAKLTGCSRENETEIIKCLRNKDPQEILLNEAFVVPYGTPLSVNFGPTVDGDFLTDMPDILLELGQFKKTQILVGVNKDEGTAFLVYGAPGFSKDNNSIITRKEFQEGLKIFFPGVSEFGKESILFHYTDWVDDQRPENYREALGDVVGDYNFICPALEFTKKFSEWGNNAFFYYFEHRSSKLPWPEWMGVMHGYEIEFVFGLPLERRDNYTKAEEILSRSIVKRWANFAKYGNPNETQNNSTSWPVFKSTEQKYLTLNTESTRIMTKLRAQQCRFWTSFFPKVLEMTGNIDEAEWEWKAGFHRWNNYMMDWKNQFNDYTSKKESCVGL
T1 sequence (O42275 24-633): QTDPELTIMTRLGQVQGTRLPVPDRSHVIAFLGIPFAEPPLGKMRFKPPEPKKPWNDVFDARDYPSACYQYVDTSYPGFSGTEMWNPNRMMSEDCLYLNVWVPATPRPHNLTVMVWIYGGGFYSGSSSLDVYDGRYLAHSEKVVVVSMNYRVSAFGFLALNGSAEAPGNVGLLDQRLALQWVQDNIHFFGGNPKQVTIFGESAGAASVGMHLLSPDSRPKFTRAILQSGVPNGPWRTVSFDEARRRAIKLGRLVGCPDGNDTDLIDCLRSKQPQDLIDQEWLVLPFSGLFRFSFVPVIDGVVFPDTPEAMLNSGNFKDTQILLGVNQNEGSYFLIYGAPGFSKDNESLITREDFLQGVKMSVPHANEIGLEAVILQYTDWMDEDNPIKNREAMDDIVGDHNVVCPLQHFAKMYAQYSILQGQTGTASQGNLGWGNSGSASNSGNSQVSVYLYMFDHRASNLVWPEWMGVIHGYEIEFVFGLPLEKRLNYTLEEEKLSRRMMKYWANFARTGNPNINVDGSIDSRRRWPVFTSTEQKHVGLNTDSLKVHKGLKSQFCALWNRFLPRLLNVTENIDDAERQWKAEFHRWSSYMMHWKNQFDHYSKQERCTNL

As to `C[C@H]1CN(CCCCCCCCNC(=O)Oc2cccc(C(C)(C)CN(C)C)c2)C[C@H](C)O1` (relative stereo) [Ex. 3, 3-[(1-dimethylamino-2-methyl)-prop-2-yl]-N-[8-[4-(trans 2,6-dimethyl)morpholinyl]octyl]-phenylcarbamate], the results for the negative logarithm of the IC50 (pIC50) in data set [1], in data set [2] and in data set [3] were 5.92, 7.70 and 6.70, respectively.
In the case of `CCCCNC(=O)Oc1cccc(C(C)(C)CN(C)C)c1` [Ex. 4, 3-[(1-dimethylamino-2-methyl)prop-2-yl]-N-butylphenyl carbamate], the pIC50 in data set [1] was 6.60; in data set [2], 8.80; in data set [3], 6.89. Moreover, the “potency compared with eptastigmine, physostigmine or tacrine” value (“potency compared with eptastigmine” for short) in data set [3] is given as “equal or even superior to that of eptastigmine or of physostigmine”.
With `CCCCCCCNC(=O)Oc1cccc(C(C)(C)CN(C)C)c1` [Ex. 5, 3-[(1-dimethylamino-2-methyl)prop-2-yl]-N-heptyl-phenyl carbamate], the negative-log IC50 (pIC50) is 6.92 in data set [1], 7.52 in data set [2] and 6.74 in data set [3]. Also, the “potency compared with eptastigmine” value in data set [3] is listed as “equal or even superior to that of eptastigmine or of physostigmine”.
Consider `CC(CN(C)C)c1cccc(OC(=O)NCCCCCCCCN2CCOCC2)c1` (stereo not drawn) [Ex. 8, 3-[(1-dimethylamino)prop-2-yl]-N-[8-(4-morpholinyl)octyl]-phenyl carbamate], for which the pIC50 is 5.89 in data set [1], 7.85 in data set [2] and 6.66 in data set [3].
Consider `COc1cc2nc(N3CCN(C(=O)CCCCCCCNC(=O)Oc4cccc(C(C)(C)CN(C)C)c4)CC3)nc(N)c2cc1OC` [Ex. 12, 3-[(1-dimethylamino-2-methyl)prop-2-yl]-N-[1-[4-(4-amino-6,7-dimethoxy)quinazolin-2-yl]piperazinyl]-8-octanoyl]-phenyl carbamate], for which the negative logarithm of the IC50 (pIC50) is 7.77 in data set [1], 7.30 in data set [2] and 7.10 in data set [3]. Besides, the “potency compared with eptastigmine” value in data set [3] is “equal or even superior to that of eptastigmine or of physostigmine”.
For `COc1cc2nc(NCCCCCCCNC(=O)Oc3cccc(C(C)(C)CN(C)C)c3)nc(N)c2cc1OC` [Ex. 13, 3-[(1-dimethylamino-2-methyl)prop-2-yl]-N-[N-[(4-amino-6,7-dimethoxy)quinazolin-2-yl]aminoheptyl]-phenyl carbamate], in that order: 7.64, 7.55, 7.82 and “equal or even superior to that of eptastigmine or of physostigmine”.
With `CN(Cc1ccccc1)CC(C)(C)c1cccc(OC(=O)NCCCCCCCCN2CCOCC2)c1` [Ex. 16, 3-[(1-(N-benzyl-N-methyl)amino-2-methyl)prop-2-yl]-N-[8-(4-morpholinyl)-octyl]-phenylcarbamate], the negative-log IC50 (pIC50) in data set [1] was 4.85; in data set [2], 8.15; in data set [3], 5.32.
`CN(C)CC(C)(C)c1cccc(OC(=O)NCCCCCCCCCCN2CCOCC2)c1` [Ex. 18, 3-[(1-dimethylamino-2-methyl)prop-2-yl]-N-[10-(4-morpholinyl)decyl]-phenylcarbamate]: in data set [3], the pIC50 was 7.00 and the “potency compared with eptastigmine” value was “equal or even superior to that of eptastigmine or of physostigmine”.
In turn, `CN(C)CC(C)(C)c1cccc(OC(=O)Nc2ccccc2)c1` [Ex. 19, 3-[1(1-dimethylamino-2-methyl)prop-2-yl]-N-phenyl phenylcarbamate] had a pIC50 in data set [2] of 6.64. In data set [3], the pIC50 was 7.00 and the “potency compared with eptastigmine” value was “equal or even superior to that of eptastigmine or of physostigmine”.
On to `CN(C)CC(C)(C)c1cccc(OC(=O)Nc2cccc(F)c2)c1` [Ex. 20, 3-[(1-dimethylamino-2-methyl)prop-2-yl]-N-(3-fluoro)phenyl phenylcarbamate], for which, in data set [2], the pIC50 was < 4.00 and the “activity on the BuChE” value is reported as “poor activity on the BuChE”. Moreover, in data set [3], the pIC50 is 6.66; the “AChE inhibitory activity and selectivity” value is “potent and selective AChE inhibitory activity”.
With `Cc1cccc(NC(=O)Oc2cccc(C(C)(C)CN(C)C)c2)c1` [Ex. 21, 3-[(1-dimethylamino-2-methyl)prop-2-yl]-N-(3-methyl)phenyl phenylcarbamate], the negative-log IC50 (pIC50) in data set [2] was 6.30; in data set [3], 6.22.
For `COc1cccc(NC(=O)Oc2cccc(C(C)(C)CN(C)C)c2)c1` [Ex. 22, 3-[(1-dimethylamino-2-methyl)prop-2-yl]-N-(3-methoxy)phenyl phenylcarbamate], in that order: 6.22 and 6.68.
Take `CN(C)CC(C)(C)c1cccc(OC(=O)Nc2cccc(Cl)c2)c1` [Ex. 23, 3-[(1-dimethylamino-2-methyl)prop-2-yl]-N-(3-chloro)phenyl phenylcarbamate]: in data set [2], the negative-log IC50 (pIC50) was < 4.00 and the “activity on the BuChE” value is given as “poor activity on the BuChE”. Further, in data set [3], the negative logarithm of the IC50 (pIC50) is 6.66; the “AChE inhibitory activity and selectivity” value was “potent and selective AChE inhibitory activity”.
`CN(C)CC(C)(C)c1cccc(OC(=O)NCc2ccccc2)c1` [Ex. 24, 3-[(1-dimethylamino-2-methyl)prop-2-yl]-N-benzyl-phenylcarbamate] had a pIC50 in data set [2] of 8.89. Also, in data set [3], the negative-log IC50 (pIC50) is 7.22 and the “potency compared with eptastigmine” value is recorded as “equal or even superior to that of eptastigmine or of physostigmine”.
With `CN(C)CC(C)(C)c1cccc(OC(=O)N(C)c2cccc(Cl)c2)c1` [Ex. 26, 3-[(1-dimethylamino-2-methyl)prop-2-yl]-N-(3-chloro)-phenyl-N-methyl-phenylcarbamate], in data set [2], the pIC50 is 3.66 and the “activity on the BuChE” value is given as “poor activity on the BuChE”. Further, in data set [3], the negative-log IC50 (pIC50) is 6.40; the “AChE inhibitory activity and selectivity” value was “potent and selective AChE inhibitory activity”.
On to `CCCCN(C(=O)Oc1cccc(C(C)(C)CN(C)C)c1)c1ccccc1` [Ex. 32, 3-[(1-dimethylamino-2-methyl)prop-2-yl]-N-butyl-N-phenyl phenylcarbamate], for which the negative logarithm of the IC50 (pIC50) is 4.15 in data set [2] and 6.38 in data set [3].
For `COc1ccc(N(C)C(=O)Oc2cccc(C(C)(C)CN(C)C)c2)cc1` [Ex. 35, 3-[(1-dimethylamino-2-methyl)prop-2-yl]-N-methyl-N-(4-methoxy)phenyl phenylcarbamate], in data set [2], the pIC50 was < 4.00 and the “activity on the BuChE” value is on record as “poor activity on the BuChE”. Besides, in data set [3], the pIC50 is 7.89; the “AChE inhibitory activity and selectivity” value was “potent and selective AChE inhibitory activity”; the “potency compared with eptastigmine” value was “equal or even superior to that of eptastigmine or of physostigmine”. Moreover, the LD50 in data set [4] (iv, read-out: Toxicity tests (LD50), rat iv) stood at 3 mg/kg. The LD50 in data set [4] (setting [5]) was determined as 40 mg/kg.
On to `CCN(C(=O)Oc1cccc(C(C)(C)CN(C)C)c1)c1ccc(OC)cc1` [Ex. 36, 3-[(1-dimethylamino-2-methyl)prop-2-yl]-N-ethyl-N-(4-methoxy)phenyl phenylcarbamate], for which the negative logarithm of the IC50 (pIC50) in data set [2] was 4.68; in data set [3] it was 5.96.
As to `CN(C)CC(C)(C)c1cccc(OC(=O)N(C)c2ccc(Cl)cc2)c1` [Ex. 37, 3-[(1-dimethylamino-2-methyl)prop-2-yl]-N-(4-chloro)phenyl-N-methyl phenylcarbamate], in data set [2], the negative logarithm of the IC50 (pIC50) is 5.10 and the “activity on the BuChE” value is given as “poor activity on the BuChE”. Further, in data set [3], the negative-log IC50 (pIC50) is 7.22; the “AChE inhibitory activity and selectivity” value was “potent and selective AChE inhibitory activity”; the “potency compared with eptastigmine” value is listed as “equal or even superior to that of eptastigmine or of physostigmine”.
In the case of `CN(C)CC(C)(C)c1cccc(OC(=O)N(C)c2cccc(F)c2)c1` [Ex. 38, 3-[(1-dimethylamino-2-methyl)prop-2-yl]-N-(3-fluoro)phenyl-N-methyl phenylcarbamate], in data set [2], the pIC50 was < 4.00 and the “activity on the BuChE” value is reported as “poor activity on the BuChE”. Also, in data set [3], the pIC50 is 7.30; the “AChE inhibitory activity and selectivity” value is “potent and selective AChE inhibitory activity”; the “potency compared with eptastigmine” value was “equal or even superior to that of eptastigmine or of physostigmine”. Also, the median lethal dose (LD50) in data set [4] (setting [5]) is > 40 mg/kg.
As to `CN(C)CC(C)(C)c1cccc(OC(=O)N(C)c2cccc(C(F)(F)F)c2)c1` [Ex. 39, 3-[(1-dimethylamino-2-methyl)prop-2-yl]-N-methyl-N-(3-trifluoromethyl) phenyl phenylcarbamate], in data set [2], the negative-log IC50 (pIC50) is < 4.00 and the “activity on the BuChE” value is recorded as “poor activity on the BuChE”. Further, in data set [3], the pIC50 is 5.96; the “AChE inhibitory activity and selectivity” value is “potent and selective AChE inhibitory activity”.
Regarding `CN(C)CC(C)(C)c1cccc(OC(=O)N(C)C2CCCCC2)c1` [Ex. 40, 3-[(1-dimethylamino-2-methyl)prop-2-yl]-N-cyclohexyl-N-methyl phenylcarbamate], in data set [2], the pIC50 was < 4.00 and the “activity on the BuChE” value was “poor activity on the BuChE”. Also, in data set [3], the pIC50 was 6.74; the “AChE inhibitory activity and selectivity” value is “potent and selective AChE inhibitory activity”; the “potency compared with eptastigmine” value is reported as “equal or even superior to that of eptastigmine or of physostigmine”. For the same molecule, the LD50 in data set [4] (setting [5]) was > 40 mg/kg.

These data come from patent US5869484A, “Phenylcarbamate derivatives suitable to the use as anticholinesterase substances” (priority 1994, dated 1999).
